Assay results reported in patent publication US10941152B2, “Pyrazole compounds as modulators of FSHR and uses thereof” (TOCOPHERX, INC., priority 2014, dated 2021).

Assays:
FSHR = molecular target: T1, FSHR (Homo sapiens, UniProt P23945); experiment: EC50 of cyclic AMP production in CHO FSHR cells + EC20 FSH (Assay A); format: cell-based; settings: cyclic AMP production in CHO FSHR cells + EC20 FSH (0.265 pM), HTRF
T1 construct: expressed in transfected cells; host or cells: CHO (Cho-FSHR-LUC-1-1-43)
T1 sequence (P23945 18-695): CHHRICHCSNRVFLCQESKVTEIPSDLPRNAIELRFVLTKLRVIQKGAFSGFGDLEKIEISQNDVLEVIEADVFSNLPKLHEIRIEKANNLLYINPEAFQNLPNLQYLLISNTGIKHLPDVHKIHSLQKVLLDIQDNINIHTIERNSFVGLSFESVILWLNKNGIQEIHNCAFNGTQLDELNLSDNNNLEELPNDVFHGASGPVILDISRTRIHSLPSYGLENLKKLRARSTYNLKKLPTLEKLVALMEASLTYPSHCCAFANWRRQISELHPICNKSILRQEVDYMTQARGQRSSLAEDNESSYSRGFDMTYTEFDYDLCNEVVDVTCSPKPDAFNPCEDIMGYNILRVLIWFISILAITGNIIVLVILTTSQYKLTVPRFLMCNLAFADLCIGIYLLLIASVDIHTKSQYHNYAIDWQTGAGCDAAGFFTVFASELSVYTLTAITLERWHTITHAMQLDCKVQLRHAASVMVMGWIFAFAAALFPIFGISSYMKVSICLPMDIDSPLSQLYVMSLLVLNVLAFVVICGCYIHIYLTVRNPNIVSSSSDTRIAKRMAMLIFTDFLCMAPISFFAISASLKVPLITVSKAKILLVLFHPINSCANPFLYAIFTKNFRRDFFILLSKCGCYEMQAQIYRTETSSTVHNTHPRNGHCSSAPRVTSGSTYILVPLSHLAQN
Procedure: Example 24. EC50 of cyclic AMP production in CHO FSHR cells+EC20 FSH (Assay A)
2500 Cho-FSHR-LUC-1-1-43 cells were plated per well in 5 al of phenol red free DMEM/F12+1% FBS. Cells were plated in 384 well, solid white low volume plates (Greiner 784075) by Multidrop. Cells were assayed by adding 100 al of 2×EC20 FSH/IBMX in DMEM/F12+0.1% BSA) by Multidrop to 2 al of test compound stamped in 384 well plates (compounds are diluted 1:50). The final FSH concentration was 0.265 pM, and the final IBMX concentration was 200 μM. The compound plate map was as follows: Column 1: 2 μl of DMSO; Column 2: 2 μl of DMSO; Columns 3-12 and 13-24: 2 μl of test compound, diluted 1:4 in 100% DMSO, or 2 μl of FSH, diluted 1:4 in DMEM/F12+0.1% BSA. The starting concentration for FSH was 50 nM (final concentration was 0.5 nM). Furthermore, Column 23 contained 2 μl of EC100 FSH reference (100×) (diluted in DMEM/F12+0.1% BSA) at a final concentration of 0.5 nM, and Column 24 contained 2 μl of 1 mM AS707664/2 reference compound 2. 5 μl of compound+EC20 FSH mixture were transferred to cell plates (1:2 dilution into 5 μl of cell media) The plates were incubated at 37° C. for 1 h. 10 μl of mixed HTRF (CisBio #62AM4PEC) reagents were added per well and incubated at room temperature for 1 h. The plates were read on Envision using the cAMP HTRF—low volume 384 well protocol. The readout was the calculated fluorescence ratio (665 nm/620 nm). Values given in percent (%) indicate the percental effect (response) at a certain concentration of agonist relative to the maximum response of the FSH standard.

[1] = molecular target: T2, follicle-stimulating hormone (FSH) receptor (Rattus norvegicus, UniProt P20395); experiment: Rat granulosa EC50 FSH (Assay B); format: cell-based
T2 construct: endogenous in cells; host or cells: rat granulosa cells
T2 sequence (P20395 18-692): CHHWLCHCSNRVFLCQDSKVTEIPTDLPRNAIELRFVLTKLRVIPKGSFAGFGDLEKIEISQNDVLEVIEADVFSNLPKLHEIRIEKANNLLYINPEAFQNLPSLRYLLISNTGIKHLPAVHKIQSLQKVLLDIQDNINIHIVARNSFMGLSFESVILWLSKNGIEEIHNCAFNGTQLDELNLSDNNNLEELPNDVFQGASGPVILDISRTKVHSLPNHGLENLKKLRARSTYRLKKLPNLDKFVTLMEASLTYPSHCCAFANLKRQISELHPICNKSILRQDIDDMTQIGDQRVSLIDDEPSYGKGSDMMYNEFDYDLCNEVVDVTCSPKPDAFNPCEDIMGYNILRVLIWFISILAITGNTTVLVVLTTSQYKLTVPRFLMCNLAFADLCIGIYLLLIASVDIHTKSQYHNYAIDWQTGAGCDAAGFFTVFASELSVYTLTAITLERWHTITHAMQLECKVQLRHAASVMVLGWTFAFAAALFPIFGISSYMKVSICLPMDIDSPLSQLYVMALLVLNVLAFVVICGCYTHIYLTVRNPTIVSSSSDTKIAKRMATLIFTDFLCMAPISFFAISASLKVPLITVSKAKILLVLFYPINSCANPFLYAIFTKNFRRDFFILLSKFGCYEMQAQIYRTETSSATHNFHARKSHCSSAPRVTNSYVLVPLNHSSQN
Procedure: Example 25. Rat granulosa EC50 FSH (Assay B)
The assay was performed pursuant to the teaching of Yanofsky et al. (2006) Allosteric activation of the follicle-stimulating hormone (FSH) receptor by selective, nonpeptide agonists (JBC 281(19): 13226-13233, which is incorporated by reference in the disclosure of the invention).

SMILES	EC50 (FSHR)	EC50 [1]
COc1cc2c(cc1-c1cnn(CC(O)CO)c1)-c1c(c(C(=O)N(C)C(C)(C)C)nn1-c1cc(Cl)cc(Cl)c1)CO2 (single isomer, unassigned) [Compound 191, N-tert-butyl-1-(3,5-dichlorophenyl)-8-(1-(2,3-dihydroxypropyl)-1H-pyrazol-4-yl)-7-methoxy-N-methyl-1,4-dihydrochromeno[4,3-c]pyrazole-3-carboxamide]	0.01 to 0.1 µM	0.101 to 0.5 µM
COc1cc2c(cc1-c1cnn(CC(N)=O)c1)-c1c(c(C(=O)N(C)C(C)(C)C)nn1-c1cc(Cl)cc(Cl)c1)CO2 [Compound 2, 8-(1-(2-amino-2-oxoethyl)-1H-pyrazol-4-yl)-N-tert-butyl-1-(3,5-dichlorophenyl)-7-methoxy-N-methyl-1,4-dihydrochromeno[4,3-c]pyrazole-3-carboxamide]	< 0.01 µM	0.01 to 0.1 µM
COc1cc2c(cc1-c1ccn(C)n1)-c1c(c(C(=O)N3CC[S+]([O-])CC3(C)C)nn1-c1cc(Cl)cc(Cl)c1)CO2 (centres unmarked) [Compound 5, 4-{[1-(3,5-dichlorophenyl)-7-methoxy-8-(1-methyl-1H-pyrazol-3-yl)-1H,4H-chromeno[4,3-c]pyrazol-3-yl]carbonyl}-3,3-dimethyl-1$1^4,4-thiomorpholin-1-one]	0.01 to 0.1 µM	0.101 to 0.5 µM
COc1cc2c(cc1-c1ccn(C)n1)-c1c(c(C(=O)N3CCC(O)CC3(C)C)nn1-c1cc(Cl)cc(Cl)c1)CO2 (centres unmarked) [Compound 7, (1-(3,5-dichlorophenyl)-7-methoxy-8-(1-methyl-1H-pyrazol-3-yl)-1,4-dihydrochromeno[4,3-c]pyrazol-3-yl)(4-hydroxy-2,2-dimethylpiperidin-1-yl)methanone]	0.01 to 0.1 µM	0.101 to 0.5 µM
COc1cc2c(cc1-c1cncc(C#N)c1)-c1c(c(C(=O)N3CCOCC3(C)C)nn1-c1cc(Cl)cc(Cl)c1)CO2 [Compound 12, 5-(1-(3,5-dichlorophenyl)-3-(3,3-dimethylmorpholine-4-carbonyl)-7-methoxy-1,4-dihydrochromeno[4,3-c]pyrazol-8-yl)nicotinonitrile]	< 0.01 µM	0.01 to 0.1 µM
COc1cc2c(cc1-c1cccnc1C#N)-c1c(c(C(=O)N(C)C(C)(C)C)nn1-c1cc(Cl)cc(Cl)c1)CO2 [Compound 14, N-tert-butyl-8-(2-cyanopyridin-3-yl)-1-(3,5-dichlorophenyl)-7-methoxy-N-methyl-1,4-dihydrochromeno[4,3-c]pyrazole-3-carboxamide]	< 0.01 µM	0.01 to 0.1 µM
COc1cc2c(cc1-c1cnc(N)c(C)c1)-c1c(c(C(=O)N(C)C(C)(C)C)nn1-c1cc(Cl)cc(Cl)c1)CO2 [Compound 17, 8-(6-amino-5-methylpyridin-3-yl)-N-tert-butyl-1-(3,5-dichlorophenyl)-7-methoxy-N-methyl-1,4-dihydrochromeno[4,3-c]pyrazole-3-carboxamide]	< 0.01 µM	0.101 to 0.5 µM
COc1cc2c(cc1-c1cccc(C#N)c1)-c1c(c(C(=O)N(C)C(C)(C)C)nn1-c1cc(Cl)cc(Cl)c1)CO2 [Compound 18, N-tert-butyl-8-(3-cyanophenyl)-1-(3,5-dichlorophenyl)-7-methoxy-N-methyl-1,4-dihydrochromeno[4,3-c]pyrazole-3-carboxamide]	0.01 to 0.1 µM	0.101 to 0.5 µM

The remaining lines, values ahead:

EC50 (FSHR)	EC50 [1]	SMILES
< 0.01 µM	0.01 to 0.1 µM	COc1cc2c(cc1-c1cnn(CCO)c1)-c1c(c(C(=O)N(C)C(C)(C)C)nn1-c1cc(Cl)cc(Cl)c1)CO2 [Compound 1, N-tert-butyl-1-(3,5-dichlorophenyl)-8-(1-(2-hydroxyethyl)-1H-pyrazol-4-yl)-7-methoxy-N-methyl-1,4-dihydrochromeno[4,3-c]pyrazole-3-carboxamide]
< 0.01 µM	0.01 to 0.1 µM	COc1cc2c(cc1-c1cccnc1F)-c1c(c(C(=O)N(C)C(C)(C)C)nn1-c1cc(Cl)cc(Cl)c1)CO2 [Compound 3, N-tert-butyl-1-(3,5-dichlorophenyl)-8-(2-fluoropyridin-3-yl)-7-methoxy-N-methyl-1,4-dihydrochromeno[4,3-c]pyrazole-3-carboxamide]
0.01 to 0.1 µM	> 0.5 µM	COc1cc2c(cc1-c1ccn(C)n1)-c1c(c(C(=O)N(C)C(C)(C)C)nn1-c1cc(Cl)cc(Cl)c1)CO2 [Compound 4, N-tert-butyl-1-(3,5-dichlorophenyl)-7-methoxy-N-methyl-8-(1-methyl-1H-pyrazol-3-yl)-1,4-dihydrochromeno[4,3-c]pyrazole-3-carboxamide]
< 0.01 µM	0.101 to 0.5 µM	COc1cc2c(cc1-c1cccnc1F)-c1c(c(C(=O)N3CC[S+]([O-])CC3(C)C)nn1-c1cc(Cl)cc(Cl)c1)CO2 (centres unmarked) [Compound 6, (1-(3,5-dichlorophenyl)-8-(2-fluoropyridin-3-yl)-7-methoxy-1H,4H-chromeno[4,3-c]pyrazol-3-yl)(S-oxo-3,3-dimethylthiomorpholino)methanone]
< 0.01 µM	0.101 to 0.5 µM	COc1cc2c(cc1-c1cncc(C#N)c1)-c1c(c(C(=O)N(C)C(C)(C)C)nn1-c1cc(Cl)cc(Cl)c1)CO2 [Compound 8, N-tert-butyl-8-(5-cyanopyridin-3-yl)-1-(3,5-dichlorophenyl)-7-methoxy-N-methyl-1,4-dihydrochromeno[4,3-c]pyrazole-3-carboxamide]
< 0.01 µM	0.101 to 0.5 µM	COc1cc2c(cc1-c1ccn(C)n1)-c1c(c(C(=O)N3CCOCC3(C)C)nn1-c1cc(Cl)cc(Cl)c1)CO2 [Compound 9, (1-(3,5-dichlorophenyl)-7-methoxy-8-(1-methyl-1H-pyrazol-3-yl)-1,4-dihydrochromeno[4,3-c]pyrazol-3-yl)(3,3-dimethylmorpholino)methanone]
< 0.01 µM	0.01 to 0.1 µM	COc1cc2c(cc1-c1ccccn1)-c1c(c(C(=O)N3CCC(O)CC3(C)C)nn1-c1cc(Cl)cc(Cl)c1)CO2 (centres unmarked) [Compound 10, (1-(3,5-dichlorophenyl)-7-methoxy-8-(pyridin-2-yl)-1,4-dihydrochromeno[4,3-c]pyrazol-3-yl)(4-hydroxy-2,2-dimethylpiperidin-1-yl)methanone]
< 0.01 µM	0.101 to 0.5 µM	COc1cc2c(cc1-c1ccc(N)nc1)-c1c(c(C(=O)N(C)C(C)(C)C)nn1-c1cc(Cl)cc(Cl)c1)CO2 [Compound 16, 8-(6-aminopyridin-3-yl)-N-tert-butyl-1-(3,5-dichlorophenyl)-7-methoxy-N-methyl-1,4-dihydrochromeno[4,3-c]pyrazole-3-carboxamide]
